Measurements as given in paper PMC11513893, “Discovery of Oral Degraders of the ROS1 Fusion Protein with Potent Activity against Secondary Resistance Mutations” (Journal of Medicinal Chemistry, 2024).

How the values were obtained:
[1] = system: Ba/F3 CD74-ROS1 non mutant; experiment: Antiproliferation assay (Alamar Blue, 72 h); type: cell-based, mouse; settings: Mus musculus, BaF3, 72 h, Ba/F3 cells, cell growth inhibition
Source text: (§1) To assess targeted degradation of ROS1 fusion proteins, we first established a mouse pro-B cell line Ba/F3 as a model expressing the CD74-ROS1 oncogene or CD74-ROS1 with clinically observed secondary/tertiary mutations. The Ba/F3 cell line is dependent on interleukin-3 for survival and proliferation. Upon transduction of oncogenic ROS1, Ba/F3 cells become independent of interleukin-3 but dependent on the transduced driver gene.
(§2) Ba/F3 immortalized murine bone marrow–derived pro-B cells were obtained from Creative Biogene (Shirley, NY) and cultured in RPMI supplemented with 10% FBS and IL3 (0.5 ng/mL). Ba/F3 cells expressing ROS1 variants were maintained in RPMI supplemented with 10% FBS and puromycin (0.7 mg/mL). […] Each compound was dissolved in DMSO and serially diluted in RPMI for cell culture experiments.
(§3) To assess the 72 h effect of drug treatment on cell proliferation, 2000 to 3000 cells were plated in replicates of three in 96-well plates. The plates were placed in an incubator at 37 °C, 5% CO2 for 72 h. Following drug treatments, the cells were incubated with the Alamar Blue Assay reagent (BioRad), 5 μL each well for 4 h at 37 °C and 5% CO2. Luminescence was measured on a multiplate reader and analyzed. […] IC50 values were determined using a nonlinear regression model with a sigmoidal dose response in GraphPad. The data were collected based on triplicate experiments, and presented as mean ± SD.
(§4) The resulting virus was used to infect Ba/F3 cells. After retroviral infection, Ba/F3 cells were selected by incubation with puromycin (0.7 mg/mL) for 2 weeks. For Ba/F3 cells infected by the CD74–ROS1 variants, IL3 was withdrawn from the culture medium at least 2 weeks before the experiments.

Ba/F3 ROS1-G2032R = experiment: Antiproliferation assay; type: cell-based, mouse; settings: Mus musculus, BaF3; Ba/F3 cells, cell growth inhibition, 72 h
Source text: as §1, §2, §3, §4

ROS1 = ROS1 degradation in Ba/F3 cells (WES immunoblotting); type: cell-based; settings: for DC50: concentration needed to reduce ROS1 protein by 50%, Ba/F3 cells; for Dmax (%) (ROS1): maximal degradation of ROS1 in Ba/F3 cells
Protocol: Protein levels were analyzed using a WES instrument according to the WES User Guide from ProteinSimple in duplicate experiments. The samples were mixed with the fluorescent 5 master mix (ProteinSimple) and then heated at 95 °C for 5 min. Boiled samples, biotinylated protein ladder, antibody diluent, Streptavidin-HRP, primary antibodies, ProteinSimple horseradish peroxidase conjugated antirabbit or antimouse secondary antibodies, luminol-peroxide, and wash buffer were loaded into the WES plate (Wes 12–230 kDa Prefilled Plates with Split Buffer, ProteinSimple). The plates and capillary cartridges were loaded into the WES instrument, and protein separation, antibody incubation, and imaging were performed according to manufacturer’s instructions. Compass software (ProteinSimple) was used to acquire the data and to generate the virtual blot image reconstruction and chemiluminescence signal intensity electropherograms. […] Protein levels are expressed as the AUC of the peak chemiluminescence intensity. Antibodies against phospho-ROS1(Tyr2274/2334) (E8F5J), ROS1 (D4D6(R)) were obtained from Cell Signaling Technology.

## Cc1cc(Nc2ncc(Cl)c(Nc3ccccc3S(=O)(=O)C(C)C)n2)c(OC(C)C)cc1C1CCN(C2CCN(CCNc3cccc4c3C(=O)N(C3CCC(=O)NC3=O)C4=O)CC2)CC1 (stereo not shown) [8d, 4-((2-(4-(4-((5-Chloro-4-((2-(isopropylsulfonyl)phenyl)amino)pyrimidin-2-yl)amino)-5-isopropoxy-2-methylphenyl)-[1,4′-bipiperidin]-1′-yl)ethyl)amino)-2-(2,6-dioxopiperidin-3-yl)isoindoline-1,3-dione]
[1]
  IC50: 183 ± 41 nM
Ba/F3 ROS1-G2032R
  IC50: 2560 ± 242 nM
ROS1
  DC50: 302 nM
  Dmax (%) (ROS1): 66%

## Cc1cc(Nc2ncc(Cl)c(Nc3ccccc3S(=O)(=O)C(C)C)n2)c(OC(C)C)cc1C1CCN(C2CCN(CCCNc3cccc4c3C(=O)N(C3CCC(=O)NC3=O)C4=O)CC2)CC1 (stereo not shown) [8e, 4-((3-(4-(4-((5-Chloro-4-((2-(isopropylsulfonyl)phenyl)amino)pyrimidin-2-yl)amino)-5-isopropoxy-2-methylphenyl)-[1,4′-bipiperidin]-1′-yl)propyl)amino)-2-(2,6-dioxopiperidin-3-yl)isoindoline-1,3-dione]
[1]
  IC50: 562 ± 61 nM
Ba/F3 ROS1-G2032R
  IC50: > 10000 nM
ROS1
  DC50: 733 nM
  Dmax (%) (ROS1): 28%

## Cc1cc(Nc2ncc(Cl)c(Nc3ccccc3S(=O)(=O)C(C)C)n2)c(OC(C)C)cc1C1CCN(C2CCN(C3CN(c4cccc5c4C(=O)N(C4CCC(=O)NC4=O)C5=O)C3)CC2)CC1 (stereo not shown) [8f, 4-(3-(4-(4-((5-Chloro-4-((2-(isopropylsulfonyl)phenyl)amino)pyrimidin-2-yl)amino)-5-isopropoxy-2-methylphenyl)-[1,4′-bipiperidin]-1′-yl)azetidin-1-yl)-2-(2,6-dioxopiperidin-3-yl)isoindoline-1,3-dione]
[1]
  IC50: 115 ± 22 nM
Ba/F3 ROS1-G2032R
  IC50: 3660 ± 299 nM
ROS1
  DC50: 189 nM
  Dmax (%) (ROS1): 67%

## Cc1cc(Nc2ncc(Cl)c(Nc3ccccc3S(=O)(=O)C(C)C)n2)c(OC(C)C)cc1C1CCN(C2CCN(CC3CN(c4cccc5c4C(=O)N(C4CCC(=O)NC4=O)C5=O)C3)CC2)CC1 (stereo not shown) [8g, 4-(3-((4-(4-((5-Chloro-4-((2-(isopropylsulfonyl)phenyl)amino)pyrimidin-2-yl)amino)-5-isopropoxy-2-methylphenyl)-[1,4′-bipiperidin]-1′-yl)methyl)azetidin-1-yl)-2-(2,6-dioxopiperidin-3-yl)isoindoline-1,3-dione]
[1]
  IC50: 191 ± 60 nM
Ba/F3 ROS1-G2032R
  IC50: 950 ± 67 nM
ROS1
  DC50: 155 nM
  Dmax (%) (ROS1): 77%

## Cc1cc(Nc2ncc(Cl)c(Nc3ccccc3S(=O)(=O)C(C)C)n2)c(OC(C)C)cc1C1CCN(CCNc2ccc3c(c2)C(=O)N(C2CCC(=O)NC2=O)C3=O)CC1 (stereo not shown) [8h, 5-((2-(4-(4-((5-Chloro-4-((2-(isopropylsulfonyl)phenyl)amino)pyrimidin-2-yl)amino)-5-isopropoxy-2-methylphenyl)piperidin-1-yl)ethyl)amino)-2-(2,6-dioxopiperidin-3-yl)isoindoline-1,3-dione]
[1]
  IC50: 128 ± 39 nM
Ba/F3 ROS1-G2032R
  IC50: 6630 ± 1800 nM
ROS1
  DC50: 145 nM
  Dmax (%) (ROS1): 71%

## Cc1cc(Nc2ncc(Cl)c(Nc3ccccc3S(=O)(=O)C(C)C)n2)c(OC(C)C)cc1C1CCN(CCCNc2ccc3c(c2)C(=O)N(C2CCC(=O)NC2=O)C3=O)CC1 (stereo not shown) [8i, 5-((3-(4-(4-((5-Chloro-4-((2-(isopropylsulfonyl)phenyl)amino)pyrimidin-2-yl)amino)-5-isopropoxy-2-methylphenyl)piperidin-1-yl)propyl)amino)-2-(2,6-dioxopiperidin-3-yl)isoindoline-1,3-dione]
[1]
  IC50: 93 ± 50 nM
Ba/F3 ROS1-G2032R
  IC50: 4710 ± 486 nM
ROS1
  DC50: 88 nM
  Dmax (%) (ROS1): 84%

## Cc1cc(Nc2ncc(Cl)c(Nc3ccccc3S(=O)(=O)C(C)C)n2)c(OC(C)C)cc1C1CCN(C2CCN(c3ccc4c(c3)C(=O)N(C3CCC(=O)NC3=O)C4=O)CC2)CC1 (stereo not shown) [8j, 5-(4-(4-((5-Chloro-4-((2-(isopropylsulfonyl)phenyl)amino)pyrimidin-2-yl)amino)-5-isopropoxy-2-methylphenyl)-[1,4′-bipiperidin]-1′-yl)-2-(2,6-dioxopiperidin-3-yl)isoindoline-1,3-dione]
[1]
  IC50: 39 ± 8 nM
Ba/F3 ROS1-G2032R
  IC50: 1530 ± 521 nM
ROS1
  DC50: 41 nM
  Dmax (%) (ROS1): 88%
